# Experimental data reported in US20210244704A1, “Cabazitaxel in mCRPC Patients Previously Treated with Docetaxel and Who Failed a Prior androgen signaling targeted inhibitor Agent” (SANOFI MATURE IP, priority 2019, published 2021).
# System: metastatic castration-resistant prostate cancer (mCRPC) patients previously treated with docetaxel and who failed a prior androgen signaling targeted inhibitor
# Assay: Randomized open-label clinical study, cabazitaxel vs abiraterone acetate or enzalutamide: imaging-based PFS, OS, PFS, PSA and tumor response
# Type: in vivo, human
# Settings: for Deaths: at cut-off date; for rPFS, HR: cabazitaxel vs abiraterone or enzalutamide
# From the text: Imaging-based progression-free survival (rPFS): defined as the time from randomization until the occurrence of one of the following events: objective tumor progression (Response Evaluation Criteria in Solid Tumors, version 1.1), progression of bone lesions (Prostate Cancer Working Group 2) or death due to any cause.
# Overall survival (OS): defined as the time from the date of randomization to the date of death due to any cause.
# Progression-free survival (PFS) defined as the time from randomization until the occurrence of objective tumor progression (using Response Evaluation Criteria in Solid Tumors, version 1.1), or progression of bone lesions (using Prostate Cancer Working Group 2 criteria), or symptomatic progression (defined as the development of urinary or bowel symptoms related to prostate cancer or requiring a change of anticancer therapy), or pain progression, or death due to any cause.
# PSA response: defined as a decline of serum PSA from baseline of ≥50% with confirmation from a second PSA value measured at least 3 weeks apart. Best PSA response was defined using the Prostate Cancer Working Group criteria 2 definition.
# Tumor response (TR): was measured using Response Evaluation Criteria in Solid Tumors, version 1.1 in patients with measurable disease.
# A clinical study was performed wherein patients received cabazitaxel versus an Androgen Receptor (AR)-targeted agent (abiraterone acetate or enzalutamide) in metastatic castration-resistant prostate cancer (mCRPC) patients previously treated with docetaxel and who failed a prior androgen signaling pathway inhibitor within 12 months.
# For patients in Arm A, cabazitaxel 25 mg/m^2 was administered intravenously over 1 hour every 3 weeks along with oral prednisone 10 mg given daily. Primary prophylactic granulocyte-colony stimulating factor (G-CSF) was required at each cycle for all patients in the cabazitaxel arm
# For patients in Arm B, abiraterone acetate was administered orally at 1000 mg once daily along with oral prednisone 5 mg given twice daily or enzalutamide was administered orally at 160 mg once daily continuously. Abiraterone acetate was administered to patients who had received enzalutamide prior to study entry. Enzalutamide was administered to patients who received prior abiraterone acetate.
# Each patient was treated until imaging-based disease progression, unacceptable toxicity, or patient's refusal of further study treatment. All patients were followed when on study treatment and after completion of study treatment during follow-up period until death, the study cut-off date, or withdrawal of patients' consent whichever came first.
# Eligible patients were randomized to receive either cabazitaxel or an AR pathway inhibitor (abiraterone acetate or enzalutamide; dependent on the use of a previous androgen signaling targeted inhibitor) in a 1:1 ratio. Stratification criteria were Eastern Cooperative Oncology Group performance status, a 5-point scale where higher numbers indicate greater disability (0-1 vs. 2), and time to disease progression (≤6 months vs. >6-12 months) and timing (before vs. after docetaxel) with previous alternative AR pathway inhibitors.
# Cabazitaxel 25 mg/m^2, was administered intravenously over 1 hour every 3 weeks with oral prednisone 10 mg daily. Premedication included an antihistamine, glucocorticoid (dexamethasone 8 mg or equivalent), and histamine 2 receptor antagonist. Antiemetic prophylaxis was administered at physician's discretion. Primary prophylactic granulocyte-colony stimulating factor was required during each cycle of cabazitaxel. Patients received either abiraterone acetate (1000 mg orally once daily and oral prednisone 5 mg twice daily) or enzalutamide (160 mg orally once daily) continuously. A treatment cycle was 3 weeks in both arms. Abiraterone acetate was given to patients who previously received enzalutamide before study entry. Enzalutamide was given to patients who previously received abiraterone acetate. […]
# [1] = cabazitaxel vs androgen signaling targeted inhibitor
compound,measurement,setting,value
"CO[C@H]1C(=O)[C@]2(C)[C@@H](OC)C[C@H]3OC[C@@]3(OC(C)=O)[C@H]2[C@H](OC(=O)c2ccccc2)[C@]2(O)C[C@H](OC(=O)[C@H](O)[C@@H](NC(=O)OC(C)(C)C)c3ccccc3)C(C)=C1C2(C)C [Cabazitaxel, 4α-acetoxy-2α-benzoyloxy-5β,20-epoxy-1p-hydroxy-7β,10β-dimethoxy-9-oxo-11-taxen-13α-yl (2R,3S)-3-tert-butoxycarbonylamino-2-hydroxy-3-phenylpropionate]",Deaths,,54.3%
same,Deaths,number,70
same,"Radiographic progression-free survival, hazard ratio, post hoc",cabazitaxel vs abiraterone acetate,0.44
same,"Overall survival, HR in multivariate analysis","cabazitaxel vs abiraterone/enzalutamide, in presence of low hemoglobin, high baseline NLR, high PSA",0.63
same,"Imaging-based progression-free survival, hazard ratio",[1],0.54
same,"Overall survival, hazard ratio",[1],0.64
same,"Progression-free survival, hazard ratio",[1],0.52
same,"Radiographic progression-free survival, hazard ratio, post hoc",cabazitaxel vs enzalutamide,0.57
same,Reduction of the risk of death from any cause,"compared with abiraterone acetate or enzalutamide, all patients",36%
same,Confirmed PSA reduction ≥50% from baseline,evaluable patients,(35.7) %
same,Confirmed PSA reduction ≥50% from baseline,"evaluable patients, listed as cabazitaxel",35.7%
same,"Radiographic progression-free survival, treatment effect hazard ratio, multivariate",fixed model MV-1,0.54
same,"Overall survival, median",from randomization,13.6 months
same,Median OS from time of 1st LET,"human, in vivo",36.4 months
same,Median OS from time of 2nd LET,"human, in vivo",24.2 months
same,Median OS from time of 3rd LET,"human, in vivo",13.6 months
same,Median OS from time of mCRPC diagnosis,"human, in vivo",40.9 months
same,Median OS from time of metastatic disease diagnosis,"human, in vivo",54.7 months
same,"Progression-free survival, median","human, in vivo",4.4 months
same,Treatment discontinuation for disease progression,"human, in vivo",43.7%
same,"Imaging-based progression-free survival, median",intention-to-treat population,8.0 months
same,Overall response rate,measurable disease,36.5%
same,"Tumor response, complete",measurable disease,0 n
same,"Tumor response, progressive disease",measurable disease,15 n
same,Confirmed PSA reduction ≥50% from baseline,"number of patients, evaluable 115 and 111",41
same,"rPFS, HR",patients 70 years or older,0.58
same,"rPFS, HR",patients aged <70 years,0.47
same,"Radiographic progression-free survival, treatment effect hazard ratio, multivariate",stepwise model MV-2,0.50
same,"Radiographic progression-free survival, treatment effect hazard ratio, multivariate",stepwise model MV-3,0.52
same,Reduction in the risk of death,"vs abiraterone or enzalutamide, both in patients ≥70 and <70 years",34%
